Broadly, the inhibition is the percentage by which the read-out fell short of the control.

Series [1] concerns pea mutant rms1. Kind of series: Inhibition of branching in the pea, application directly on the axillary bud. Format: in vivo, Pisum sativum L. To be noted: for activity (length of bud/branch at node 3, 8 days after treatment at node 3): mean of 24 plants. The method, then:
Generally, in the pea, the first two scales are considered to be the first two nodes, the cotyledonary node being node 0.
The rms1 mutant is an “SMS” signal biosynthesis mutant, repressing branching of the plant.
Tests for activity on the inhibition of branching were carried out in the following way.
The strigolactone-deficient rms1 (ccd8) pea mutants described in Beveridge et al., 1997, were used for the test (M3T884 line derived from the Térèse variety).
The activity of the compounds (IIa), (II′d) and (II′e) in accordance with the invention and of the comparative compound GR24 was evaluated at respective doses of 10 nM, 100 nM and 1 μM, by treatment at node 3. […]
24 plants were sown per treatment. 8 days after sowing, the treatment was carried out on the axillary bud at node 3, by application of 10 μl of each solution to be tested, directly on the bud, by means of a micropipette. The lateral outgrowths at nodes 1 and 2 were removed in order to encourage the growth of the axillary buds at the higher nodes. […]
The activity of the compounds (IIa), (IIb), (IIc), (II′d), (II′e) and (II′f) in accordance with the invention was evaluated at respective doses of 100 nM and 1 μM, by treatment at node 3.
For this, solutions containing each compound to be tested, in 1% acetone, 4% propylene glycol 1450 and 50% ethanol, were used.
The activity of the compounds (IIa), (IIIa), (IIIb) and (IIIc) in accordance with the invention, and also of GR24 as comparative compound, was evaluated at respective doses of 100 nM and 1 μM, by treatment at node 3, according to the protocol described above with reference to experiment 2.
A sample consisting only of the solvent, and without active compound, was also tested as negative control, termed “CTL 0”.
In this experiment, the activity of the compound (IIIa) in accordance with the invention, and also of GR24 as comparative compound, was evaluated at respective doses of 1 nM, 10 nM, 100 nM and 1 μM, by treatment at node 3, according to the protocol described above with reference to experiment 2, for doses of 10 nM, 100 nM and 1 μM of compounds.
A sample consisting only of the solvent, and without active compound (“CTL 0”) was also tested as a negative control. A nontreated (“NT”) control was also carried out.
A dose-response test for evaluating the activity of the compounds by deposition at node 3 was carried out according to the protocol described above with reference to experiment 2, for the compound in accordance with the invention (IIa) and for the comparative compounds GR24, Comp. 3 and Comp. 4. Concentrations of 10 nM, 100 nM and 1 μM were tested.
A sample consisting only of the solvent, and without active compound (“CTL 0”), was also tested as a negative control. A nontreated (“NT”) control was also carried out.
A dose-response test for evaluating the activity of the compounds by deposition at node 3 was carried out according to the protocol described above with reference to experiment 2, for the compound in accordance with the invention (IIa) and for the comparative compounds GR24, Comp. 5 and Comp. 6. Concentrations of 10 nM and 100 nM were tested. […]
The sprouting of the axillary buds at node 4 was measured 8 days after the treatment by means of a digital sliding caliper.
The activity of the compound (IIIa) in accordance with the invention on bud growth at node 3 was evaluated at a dose of 1000 nM by treatment at node 3. The GR24 compound was tested at the same concentration as comparative compound. […]

The test system of the next series is MRC5 cells. Kind of series: In vitro cytotoxicity study on MRC5 cells (MTS). Format: cell-based, human. The method, then: The cytotoxicity of the compound (IIa) according to the invention, and that of GR24 and of GR5 as comparative compounds, was evaluated in vitro, at concentrations of 10^−4 M and 10^−5 M, on MRC5 cells, in DMSO, in the following way.
MRC5 cells (human lung (fibroblasts) were cultured in Dulbecco's modified Eagle medium (DMEM) supplemented with: 25 mM of glucose, 10% (v/v) of fetal calf serum, 100 IU of penicillin, 100 μg/ml of streptomycin and 1.5 μg/ml of fungizone, and kept under 5% of CO2 at 37° C.
96-well plates were seeded with 2100 MRC5 cells per well in 200 μl of medium. After 24 hours, each of the compounds dissolved in DMSO was added for 72 hours, at a final concentration of 10^−4 M or 10^−5 M in a fixed volume of DMSO. The controls received an equal volume of DMSO.
The viable cell number was measured at 490 nm with the MTS reagent (Promega), and, for each compound, the concentration causing 50% inhibition of cell growth, IC50, was calculated.

The subject of a further series is pea rms4 mutant. Format: in vivo, Pisum sativum L. As to the method: The protocol used is in accordance with that described in example 4 above. Compound concentrations of 100 nM and 3 μM were tested. A negative control consisting of the solvent alone (<<CTL 0>>) was also tested.
The number of dead buds following the treatment with 3 μM of compound was also determined after 8 days of treatment (on groups of 48 plants).

Series [2] has as its system pea mutant rms1. Nature of the series: Inhibition of branching in the pea, application directly on the axillary bud. To be noted: Experiment 7, FIG. 9; 0.1 nM, 1 nM, 10 nM and 100 nM. Format: in vivo, Pisum sativum L.

In the case of `CC1=C(C)C(Sc2ccc(Cl)cc2)OC1=O` (centres unmarked) [Compound (IIa), 5-((4-chlorophenyl)thio)-3,4-dimethylfuran-2(5H)-one], the “inhibitory activity on bud growth (length of bud/branch at node 3, 8 days after treatment at node 3)” value in the series with pea mutant rms1 [1] (Experiment 1, FIG. 3, 10 nM, 100 nM, 1 μM, at the highest concentrations) is given as “inhibitory activity on bud growth which is greater than that of the comparative compound GR24”; with pea mutant rms1 [1] (Experiment 2, FIG. 4, 100 nM and 1 μM), “most active”. In addition, the “bud growth inhibition (length of bud/branch at node 3, 8 days after treatment at node 3)” value in the series on pea mutant rms1 [1] (Experiment 3, FIG. 5, 100 nM and 1 μM) is “activity similar to that of the comparative compound GR24”. Moreover, the “activity (length of bud/branch at node 3, 8 days after treatment at node 3)” value in the series with pea mutant rms1 [1] (Experiment 5, FIG. 7, 10 nM, 100 nM and 1 μM) was “activity which is greater than the comparative compounds provided by the prior art, Comp. 3 and Comp. 4, this being at all the doses tested”; with pea mutant rms1 [1] (Experiment 6, FIG. 8, 10 nM and 100 nM), “activity which is greater than the comparative compounds provided by the prior art, Comp. 5 and Comp. 6, this being at all the doses tested”. Also, in the series on MRC5 cells (Homo sapiens, MRC5, 10^−4M, 72 hours, ± standard error, read-out: Percentage inhibition of MRC5 cell growth), the inhibition at 100 µM came to 11 ± 5%. In addition, in the series on MRC5 cells (Homo sapiens, MRC5, 10^−5M, 72 hours, ± standard error, read-out: Percentage inhibition of MRC5 cell growth), the inhibition at 10 µM worked out at 7 ± 4%. In addition, in the series on MRC5 cells (concentration of 10^−4 M), the “cytotoxicity compared with GR5 and GR24” value is “cytotoxicity which is much lower than that of the comparative compounds GR5 and GR24”. In the series on pea rms4 mutant (100 nM and 3 μM, 8 days after treatment at node 3, FIG. 15), the “length of bud/branch at node 3 (toxicity)” value is “absence of effects of the compounds in accordance with the invention (IIa) and (IIIb) compared with a negative control, and between the two treatment doses”. The “number of dead buds after treatment” value in the series on pea rms4 mutant (3 μM, 8 days of treatment, groups of 48 plants, FIG. 16) is reported as “no significant difference is notable regarding the number of dead buds following the treatment”. Further, the “inhibitory activity on bud growth at node 4 (length of bud/branch 8 days after treatment at node 4)” value in the series with pea mutant rms1 [2] is “equivalent to that of GR24 at the strongest concentrations, and slightly better at the lowest concentration of 0.1 nM”.
